The NIST ThermoML archive (doi:10.1021/acs.jced.9b00752)
Numbers after ± are expanded uncertainties.

Assay: mn = molality of the nth substance listed, in mol/kg
Conditions: 100 kPa, Liquid, Vibrating tube method

`O=C(O)[C@@H]1CCCN1` [L-proline] + O showed a mass density (278.65 K, m1 = 0.0132) of 1000.41 ± 0.11 kg/m3, a mass density (278.65 K, m1 = 0.0326) of 1001.08 ± 0.11 kg/m3 and a mass density (278.65 K, m1 = 0.0542) of 1001.81 ± 0.11 kg/m3. For the same compound, the mass density (278.65 K, m1 = 0.0692) was 1002.32 ± 0.11 kg/m3, the mass density (278.65 K, m1 = 0.0808) was 1002.71 ± 0.11 kg/m3 and the mass density (278.65 K, m1 = 0.1014) was 1003.42 ± 0.11 kg/m3. It also gave a mass density (278.65 K, m1 = 0.1196) of 1004.08 ± 0.11 kg/m3, a mass density (278.65 K, m1 = 0.1326) of 1004.49 ± 0.11 kg/m3 and a mass density (278.65 K, m1 = 0.1555) of 1005.24 ± 0.15 kg/m3. It also gave a mass density (278.65 K, m1 = 0.1568) of 1005.37 ± 0.15 kg/m3, a mass density (278.65 K, m1 = 0.1835) of 1006.18 ± 0.11 kg/m3 and a mass density (278.65 K, m1 = 0.2076) of 1006.97 ± 0.11 kg/m3. It also gave a mass density (278.65 K, m1 = 0.2212) of 1007.63 ± 0.12 kg/m3, a mass density (279.15 K, m1 = 0.0132) of 1000.39 ± 0.11 kg/m3 and a mass density (279.15 K, m1 = 0.0326) of 1001.06 ± 0.11 kg/m3. For the same compound, the mass density (279.15 K, m1 = 0.0542) was 1001.79 ± 0.11 kg/m3, the mass density (279.15 K, m1 = 0.0692) was 1002.3 ± 0.11 kg/m3 and the mass density (279.15 K, m1 = 0.0808) was 1002.7 ± 0.11 kg/m3. The mass density (279.15 K, m1 = 0.1014) was 1003.4 ± 0.11 kg/m3, the mass density (279.15 K, m1 = 0.1196) was 1004.06 ± 0.11 kg/m3 and the mass density (279.15 K, m1 = 0.1326) was 1004.47 ± 0.11 kg/m3. For the same compound, the mass density (279.15 K, m1 = 0.1555) was 1005.21 ± 0.15 kg/m3, the mass density (279.15 K, m1 = 0.1568) was 1005.35 ± 0.15 kg/m3 and the mass density (279.15 K, m1 = 0.1835) was 1006.15 ± 0.11 kg/m3. It also gave a mass density (279.15 K, m1 = 0.2076) of 1006.94 ± 0.11 kg/m3, a mass density (279.15 K, m1 = 0.2212) of 1007.6 ± 0.12 kg/m3 and a mass density (279.65 K, m1 = 0.0132) of 1000.38 ± 0.11 kg/m3. It also gave a mass density (279.65 K, m1 = 0.0326) of 1001.04 ± 0.11 kg/m3, a mass density (279.65 K, m1 = 0.0542) of 1001.77 ± 0.11 kg/m3 and a mass density (279.65 K, m1 = 0.0692) of 1002.27 ± 0.11 kg/m3. The mass density (279.65 K, m1 = 0.0808) was 1002.67 ± 0.11 kg/m3, the mass density (279.65 K, m1 = 0.1014) was 1003.37 ± 0.11 kg/m3 and the mass density (279.65 K, m1 = 0.1196) was 1004.03 ± 0.11 kg/m3. It also gave a mass density (279.65 K, m1 = 0.1326) of 1004.44 ± 0.11 kg/m3, a mass density (279.65 K, m1 = 0.1555) of 1005.19 ± 0.15 kg/m3 and a mass density (279.65 K, m1 = 0.1568) of 1005.32 ± 0.15 kg/m3. For the same compound, the mass density (279.65 K, m1 = 0.1835) was 1006.12 ± 0.11 kg/m3, the mass density (279.65 K, m1 = 0.2076) was 1006.91 ± 0.11 kg/m3 and the mass density (279.65 K, m1 = 0.2212) was 1007.57 ± 0.12 kg/m3. For the same compound, the mass density (280.15 K, m1 = 0.0132) was 1000.35 ± 0.11 kg/m3, the mass density (280.15 K, m1 = 0.0326) was 1001.02 ± 0.11 kg/m3 and the mass density (280.15 K, m1 = 0.0542) was 1001.75 ± 0.11 kg/m3. The mass density (280.15 K, m1 = 0.0692) was 1002.25 ± 0.11 kg/m3, the mass density (280.15 K, m1 = 0.0808) was 1002.64 ± 0.11 kg/m3 and the mass density (280.15 K, m1 = 0.1014) was 1003.35 ± 0.11 kg/m3. For the same compound, the mass density (280.15 K, m1 = 0.1196) was 1004 ± 0.11 kg/m3, the mass density (280.15 K, m1 = 0.1326) was 1004.41 ± 0.11 kg/m3 and the mass density (280.15 K, m1 = 0.1555) was 1005.15 ± 0.15 kg/m3. For the same compound, the mass density (280.15 K, m1 = 0.1568) was 1005.29 ± 0.15 kg/m3, the mass density (280.15 K, m1 = 0.1835) was 1006.09 ± 0.11 kg/m3 and the mass density (280.15 K, m1 = 0.2076) was 1006.87 ± 0.11 kg/m3. It also gave a mass density (280.15 K, m1 = 0.2212) of 1007.53 ± 0.12 kg/m3, a mass density (280.65 K, m1 = 0.0132) of 1000.33 ± 0.11 kg/m3 and a mass density (280.65 K, m1 = 0.0326) of 1000.99 ± 0.11 kg/m3. The mass density (280.65 K, m1 = 0.0542) was 1001.72 ± 0.11 kg/m3, the mass density (280.65 K, m1 = 0.0692) was 1002.22 ± 0.11 kg/m3 and the mass density (280.65 K, m1 = 0.0808) was 1002.61 ± 0.11 kg/m3. It also gave a mass density (280.65 K, m1 = 0.1014) of 1003.31 ± 0.11 kg/m3, a mass density (280.65 K, m1 = 0.1196) of 1003.97 ± 0.11 kg/m3 and a mass density (280.65 K, m1 = 0.1326) of 1004.38 ± 0.11 kg/m3. For the same compound, the mass density (280.65 K, m1 = 0.1555) was 1005.12 ± 0.15 kg/m3, the mass density (280.65 K, m1 = 0.1568) was 1005.25 ± 0.15 kg/m3 and the mass density (280.65 K, m1 = 0.1835) was 1006.05 ± 0.11 kg/m3. It also gave a mass density (280.65 K, m1 = 0.2076) of 1006.83 ± 0.11 kg/m3, a mass density (280.65 K, m1 = 0.2212) of 1007.5 ± 0.12 kg/m3 and a mass density (281.15 K, m1 = 0.0132) of 1000.3 ± 0.11 kg/m3. It also gave a mass density (281.15 K, m1 = 0.0326) of 1000.97 ± 0.11 kg/m3, a mass density (281.15 K, m1 = 0.0542) of 1001.69 ± 0.11 kg/m3 and a mass density (281.15 K, m1 = 0.0692) of 1002.19 ± 0.11 kg/m3. For the same compound, the mass density (281.15 K, m1 = 0.0808) was 1002.59 ± 0.11 kg/m3, the mass density (281.15 K, m1 = 0.1014) was 1003.28 ± 0.11 kg/m3 and the mass density (281.15 K, m1 = 0.1196) was 1003.94 ± 0.11 kg/m3. The mass density (281.15 K, m1 = 0.1326) was 1004.35 ± 0.11 kg/m3, the mass density (281.15 K, m1 = 0.1555) was 1005.09 ± 0.15 kg/m3 and the mass density (281.15 K, m1 = 0.1568) was 1005.22 ± 0.14 kg/m3. The mass density (281.15 K, m1 = 0.1835) was 1006.02 ± 0.11 kg/m3, the mass density (281.15 K, m1 = 0.2076) was 1006.8 ± 0.11 kg/m3 and the mass density (281.15 K, m1 = 0.2212) was 1007.46 ± 0.12 kg/m3. The mass density (281.65 K, m1 = 0.0132) was 1000.27 ± 0.11 kg/m3, the mass density (281.65 K, m1 = 0.0326) was 1000.93 ± 0.11 kg/m3 and the mass density (281.65 K, m1 = 0.0542) was 1001.66 ± 0.11 kg/m3. For the same compound, the mass density (281.65 K, m1 = 0.0692) was 1002.15 ± 0.11 kg/m3, the mass density (281.65 K, m1 = 0.0808) was 1002.55 ± 0.11 kg/m3 and the mass density (281.65 K, m1 = 0.1014) was 1003.25 ± 0.11 kg/m3. The mass density (281.65 K, m1 = 0.1196) was 1003.9 ± 0.11 kg/m3, the mass density (281.65 K, m1 = 0.1326) was 1004.31 ± 0.11 kg/m3 and the mass density (281.65 K, m1 = 0.1555) was 1005.04 ± 0.15 kg/m3. The mass density (281.65 K, m1 = 0.1568) was 1005.18 ± 0.15 kg/m3, the mass density (281.65 K, m1 = 0.1835) was 1005.98 ± 0.11 kg/m3 and the mass density (281.65 K, m1 = 0.2076) was 1006.75 ± 0.11 kg/m3. It also gave a mass density (281.65 K, m1 = 0.2212) of 1007.41 ± 0.12 kg/m3, a mass density (282.15 K, m1 = 0.0132) of 1000.23 ± 0.11 kg/m3 and a mass density (282.15 K, m1 = 0.0326) of 1000.89 ± 0.11 kg/m3. For the same compound, the mass density (282.15 K, m1 = 0.0542) was 1001.62 ± 0.11 kg/m3, the mass density (282.15 K, m1 = 0.0692) was 1002.12 ± 0.11 kg/m3 and the mass density (282.15 K, m1 = 0.0808) was 1002.5 ± 0.11 kg/m3. The mass density (282.15 K, m1 = 0.1014) was 1003.2 ± 0.11 kg/m3, the mass density (282.15 K, m1 = 0.1196) was 1003.86 ± 0.11 kg/m3 and the mass density (282.15 K, m1 = 0.1326) was 1004.26 ± 0.11 kg/m3. For the same compound, the mass density (282.15 K, m1 = 0.1555) was 1005 ± 0.15 kg/m3, the mass density (282.15 K, m1 = 0.1568) was 1005.13 ± 0.15 kg/m3 and the mass density (282.15 K, m1 = 0.1835) was 1005.93 ± 0.11 kg/m3. For the same compound, the mass density (282.15 K, m1 = 0.2076) was 1006.7 ± 0.11 kg/m3, the mass density (282.15 K, m1 = 0.2212) was 1007.36 ± 0.12 kg/m3 and the mass density (282.65 K, m1 = 0.0132) was 1000.19 ± 0.11 kg/m3. The mass density (282.65 K, m1 = 0.0326) was 1000.85 ± 0.11 kg/m3, the mass density (282.65 K, m1 = 0.0542) was 1001.57 ± 0.11 kg/m3 and the mass density (282.65 K, m1 = 0.0692) was 1002.07 ± 0.11 kg/m3. It also gave a mass density (282.65 K, m1 = 0.0808) of 1002.46 ± 0.11 kg/m3, a mass density (282.65 K, m1 = 0.1014) of 1003.16 ± 0.11 kg/m3 and a mass density (282.65 K, m1 = 0.1196) of 1003.81 ± 0.11 kg/m3. For the same compound, the mass density (282.65 K, m1 = 0.1326) was 1004.21 ± 0.11 kg/m3, the mass density (282.65 K, m1 = 0.1555) was 1004.95 ± 0.15 kg/m3 and the mass density (282.65 K, m1 = 0.1568) was 1005.08 ± 0.15 kg/m3. The mass density (282.65 K, m1 = 0.1835) was 1005.88 ± 0.11 kg/m3, the mass density (282.65 K, m1 = 0.2076) was 1006.65 ± 0.11 kg/m3 and the mass density (282.65 K, m1 = 0.2212) was 1007.31 ± 0.12 kg/m3. The mass density (283.15 K, m1 = 0.0132) was 1000.15 ± 0.11 kg/m3, the mass density (283.15 K, m1 = 0.0326) was 1000.81 ± 0.11 kg/m3 and the mass density (283.15 K, m1 = 0.0542) was 1001.53 ± 0.11 kg/m3. It also gave a mass density (283.15 K, m1 = 0.0692) of 1002.03 ± 0.11 kg/m3, a mass density (283.15 K, m1 = 0.0808) of 1002.41 ± 0.11 kg/m3 and a mass density (283.15 K, m1 = 0.1014) of 1003.11 ± 0.11 kg/m3. For the same compound, the mass density (283.15 K, m1 = 0.1196) was 1003.76 ± 0.11 kg/m3, the mass density (283.15 K, m1 = 0.1326) was 1004.16 ± 0.11 kg/m3 and the mass density (283.15 K, m1 = 0.1555) was 1004.9 ± 0.15 kg/m3. For the same compound, the mass density (283.15 K, m1 = 0.1568) was 1005.03 ± 0.15 kg/m3, the mass density (283.15 K, m1 = 0.1835) was 1005.83 ± 0.11 kg/m3 and the mass density (283.15 K, m1 = 0.2076) was 1006.6 ± 0.11 kg/m3. The mass density (283.15 K, m1 = 0.2212) was 1007.26 ± 0.12 kg/m3.
